Reference: patent US9714247B2, “Multiple kinase pathway inhibitors” (Mannkind Corporation, priority 2012, dated 2017)
Read-outs that look alike come from different tables or passages of the source.

Assays:
BTK = BTK (Homo sapiens (Human), UniProt Q06187)
Lyn [1] = target: T1, Lyn (Homo sapiens (Human), UniProt P07948); experiment: biochemical
DoHH2 = experiment: CellTiter-Glo proliferation/viability assay; assay type: cell-based, human; conditions: Homo sapiens, DOHH-2
Lyn [2] = target: T1, Lyn; conditions: read-out: Lyn IC50
Ramos = experiment: CellTiter-Glo proliferation/viability assay; assay type: cell-based, human; conditions: Homo sapiens, Ramos, read-out: Ramos EC50
Src [3] = target: T2, Src (Homo sapiens (Human), UniProt P12931); experiment: biochemical
Src [4] = target: T2, Src; conditions: read-out: Src IC50
[5] = tested on: PLCγ2 phosphorylation in Ramos cells; experiment: PLCγ2 phosphorylation by flow cytometry; assay type: cell-based, human; conditions: Homo sapiens, flow cytometry, anti-phospho PLCγ2 (Tyr1217), four concentrations, read-out: Inhibition of phosphorylation of PLC-γ2 EC50
Description: Ramos cells were cultured in RPMI 1640 media with 10% FBS and were starved overnight (18 h) in 1% FBS containing media and on the next day pretreated with inhibitor for 2 h before stimulation. Cells were stimulated to induce BTK network dependent signal transduction pathways using mouse anti-human IgM (final concentration 10 ug/ml; Invitrogen) antibodies and 3.3 mM H2O2 mixture for 2 minutes followed by F(Ab) fragment that cross-linked the anti-IgM antibody (final concentration 10 ug/ml), and 3.3 mM H2O2 for 8 minutes. Cell lysates were prepared in lysis buffer containing protease and phosphatase inhibitors, quantified using the BCA protein assay kit (Pierce) and used for Western blotting. Antibodies specifically targeted to the molecules of interest, PLCγ2 phosphorylated at Tyr1217 and total PLCγ2, (Cell Signaling Technology) were used in a standard Western blotting procedure.
PLCγ2 phosphorylation was also assessed by flow cytometry. Cells were similarly stimulated and following stimulation, Cytofix buffer (Becton Dickinson) was added, cells were centrifuged and the cell pellets incubated on ice with Phosflow perm buffer III (Becton Dickinson). These cell pellets were washed with Perm/Wash buffer (Becton Dickinson); resuspended and labeled for flow cytometry analysis in a staining mixture containing Perm/Wash buffer and PE-labeled anti-phosphoPCLγa2 (Tyr1217) antibody (Becton Dickinson). The samples were washed with Perm/Wash buffer and analyzed on a FACS Calibur flow cytometer using CellQuest Pro software. As mentioned for the Western blot experiments, phosphorylation of PLCγ2 at Tyr1217 along with Tyr753, Tyr759 and Tyr1197 is correlated with increased PLCγ2 activity. The readout for BTK network signaling was inhibition of phosphorylation of PLCγ2. Cells were gated to exclude dead or dying cells. Fluorescence signals from the antibody staining were plotted in logarithmic units and data was analyzed using Cellquest Pro software. […] An ED50 was calculated based on the geometric mean of fluorescence intensity observed for treatment for four different concentrations of the inhibitors (see Table 7 and FIG. 6). […] Thus treatment with amino naphthyridinones inhibits PLCγ2 phosphorylation consistent with inhibition of BTK and/or LYN activity.
Following stimulation, cells were prepared for analysis by flow cytometry as described above. In short, cells were fixed and permeabilized using Cytofix buffer, Phosflow perm buffer and Perm/Wash buffer (Becton Dickinson). The cells were stained with PE-labeled anti-phosphoPCLγ2 (Tyr759) antibody (Becton Dickinson) and analyzed on a FACS Calibur flow cytometer using CellQuest Pro software. […] Thus aminonaphthyridinones are useful for the indirect inhibition of PLCγ2 phosphorylation.

DoHH2 cells = conditions: treated 24 hours
[6] = Table 4, DoHH2 cells, read-out: EC50 (Proliferation)

T2 sequence (P12931 whole entry, looked up): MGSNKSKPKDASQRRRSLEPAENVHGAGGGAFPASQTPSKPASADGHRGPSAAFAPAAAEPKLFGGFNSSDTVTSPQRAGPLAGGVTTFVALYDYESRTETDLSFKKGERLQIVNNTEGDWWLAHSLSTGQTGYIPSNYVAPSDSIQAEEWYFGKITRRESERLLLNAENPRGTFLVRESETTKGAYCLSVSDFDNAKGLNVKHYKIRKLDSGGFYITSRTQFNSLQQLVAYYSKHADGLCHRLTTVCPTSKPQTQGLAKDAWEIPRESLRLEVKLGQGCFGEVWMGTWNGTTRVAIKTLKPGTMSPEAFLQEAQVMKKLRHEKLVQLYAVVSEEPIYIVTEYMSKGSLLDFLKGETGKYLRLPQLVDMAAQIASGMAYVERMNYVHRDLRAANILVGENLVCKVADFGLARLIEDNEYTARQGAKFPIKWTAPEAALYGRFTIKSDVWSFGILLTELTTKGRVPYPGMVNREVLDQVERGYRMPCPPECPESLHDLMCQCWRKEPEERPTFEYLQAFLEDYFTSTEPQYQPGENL
T1 sequence (P07948 whole entry): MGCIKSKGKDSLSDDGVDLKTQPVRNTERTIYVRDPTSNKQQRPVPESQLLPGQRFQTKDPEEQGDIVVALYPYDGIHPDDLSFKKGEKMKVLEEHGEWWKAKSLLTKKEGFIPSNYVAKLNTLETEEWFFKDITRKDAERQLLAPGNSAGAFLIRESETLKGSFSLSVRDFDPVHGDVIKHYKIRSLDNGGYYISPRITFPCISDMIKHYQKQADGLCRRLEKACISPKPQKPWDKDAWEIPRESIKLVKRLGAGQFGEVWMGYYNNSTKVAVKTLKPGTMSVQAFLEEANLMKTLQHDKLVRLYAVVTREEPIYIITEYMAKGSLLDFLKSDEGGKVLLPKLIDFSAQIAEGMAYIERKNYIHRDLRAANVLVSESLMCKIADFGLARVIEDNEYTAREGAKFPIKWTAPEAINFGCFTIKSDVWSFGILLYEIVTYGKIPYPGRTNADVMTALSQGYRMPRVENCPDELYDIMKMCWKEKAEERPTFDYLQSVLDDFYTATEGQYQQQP
BTK, sequence (Q06187 whole entry): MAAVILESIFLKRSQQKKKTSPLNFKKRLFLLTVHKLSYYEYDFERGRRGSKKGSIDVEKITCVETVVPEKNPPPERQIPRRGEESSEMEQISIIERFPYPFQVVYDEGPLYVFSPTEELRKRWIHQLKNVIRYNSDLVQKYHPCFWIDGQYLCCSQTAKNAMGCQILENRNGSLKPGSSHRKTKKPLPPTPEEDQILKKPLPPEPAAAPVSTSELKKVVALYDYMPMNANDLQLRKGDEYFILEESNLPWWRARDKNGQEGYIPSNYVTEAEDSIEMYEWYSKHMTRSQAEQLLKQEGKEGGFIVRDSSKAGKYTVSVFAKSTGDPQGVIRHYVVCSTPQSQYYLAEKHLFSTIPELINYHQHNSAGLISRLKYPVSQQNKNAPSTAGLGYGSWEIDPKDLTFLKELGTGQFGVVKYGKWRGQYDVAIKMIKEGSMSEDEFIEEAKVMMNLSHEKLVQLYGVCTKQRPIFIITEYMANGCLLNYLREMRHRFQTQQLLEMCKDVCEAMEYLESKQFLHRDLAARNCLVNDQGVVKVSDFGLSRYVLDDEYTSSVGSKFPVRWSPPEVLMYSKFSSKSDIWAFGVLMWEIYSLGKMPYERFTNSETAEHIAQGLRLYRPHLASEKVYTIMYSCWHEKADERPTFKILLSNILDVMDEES

IC50 (BTK) [nM]	IC50 (BTK; read-out: BTK IC50) [nM]	IC50 (Lyn [1]) [nM]	IC50 (Lyn [2]) [nM]	EC50 (Ramos; 48 h) [nM]	IC50 (Src [3]) [nM]	IC50 (Src [4]) [nM]	EC50 [5] [nM]	EC50 (Ramos; 48 hrs) [nM]	IC50 (Lyn [1]; Lyn IC50) [nM]	Structure (SMILES)	EC50 (DoHH2; 48 hrs, read-out: DoHH2 EC50) [nM]	Effect on Cell Cycle (DoHH2 cells)	EC50 (DoHH2; [6]) [nM]
100 to 1000	100 to 1000	100 to 1000	100 to 1000	> 10000	100 to 1000	–	–	–	–	CCn1c(=O)c(-c2ccccc2C)cc2cnc(Nc3ccc(C)cn3)cc21 [Compound 45, 1-ethyl-7-(5-methylpyr—idin-2-ylamino)-3-o-tolyl-1,6-naphthyridin-2(1H)-one]	> 10000	–	–
–	–	–	< 100	1000 to 10000	–	< 100	450	–	–	O=c1c(-c2c(F)cccc2F)cc2cnc(Nc3ccc(F)cn3)cc2n1C1CCOC1 (stereo not shown) [Compound 83, 3-(2,6-difluorophenyl)-7-((5-fluoropyridin-2-yl)amino)-1-(tetrahydrofuran-3-yl)-1,6-naphthyridin-2(1H)-one]	< 1000	–	–
100 to 1000	–	–	< 100	1000 to 10000	–	< 100	–	–	–	CCn1c(=O)c(-c2ccccc2)cc2cnc(Nc3ccc(NCCO)cn3)cc21 [Compound 66, 1-Ethyl-7-[5-(2-hydroxy-ethylamino)-pyridin-2-ylamino]-3-phenyl-1H-[1,6]naphthyridin-2-one]	< 1000	G1 Arrest	< 1000
1000 to 5000	–	100 to 1000	–	> 10000	1000 to 5000	–	–	–	–	CCn1c(=O)c(-c2ccccc2F)cc2cnc(Nc3ccc(F)cn3)cc21 [Compound 72, 1-ethyl-3-(2-fluorophenyl)-7-(5-fluoropyridin-2-ylamino)-1,6-naphthyridin-2 (1H)-one]	1000 to 10000	G1 Arrest	1000 to 10000
–	–	–	< 100	–	–	< 100	–	> 10000	–	O=c1c(-c2c(F)cccc2F)cc2cnc(Nc3ccc(F)cn3)cc2n1C1CCCC1 [Compound 77, 1-cyclopentyl-3-(2,6-difluorophenyl)-7-((5-fluoropyridin-2-yl)amino)-1,6-naphthyridin-2(1H)-one]	< 1000	G1 Arrest	< 1000
1000 to 5000	–	100 to 1000	–	> 10000	1000 to 5000	–	–	–	–	CCn1c(=O)c(-c2ccccc2)cc2cnc(Nc3ncc(C)s3)cc21 [Compound 8, 1-Ethyl-7-(5-methyl-thiazol-2-ylamino)-3-phenyl-1H-[1,6]naphthyridin-2-one]	> 10000	No Arrest	> 10000
1000 to 5000	–	–	> 5000	–	1000 to 5000	–	–	< 1000	–	CCn1c(=O)c(-c2ccccc2)cc2cnc(Nc3nccs3)cc21 [Compound 42, 1-Ethyl-3-phenyl-7-(thiazol-2-ylamino)-1H-[1,6]naphthyridin-2-one]	< 1000	G2 Arrest	< 1000
1000 to 5000	–	100 to 1000	–	1000 to 10000	100 to 1000	–	–	–	–	CCN(CC)CCOc1ccc(Nc2cc3c(cn2)cc(-c2ccccc2)c(=O)n3C2CCOC2)nc1 (stereo not shown) [Compound 17, 7-((5-(2-(diethylamino)ethoxy)pyridin-2-yl)amino)-3-phenyl-1-(tetrahydrofuran-3-yl)-1,6-naphthyridin-2(1H)-one]	< 1000	G1 Arrest	< 1000
–	–	100 to 1000	100 to 1000	> 10000	100 to 1000	–	–	–	–	CCN(CC)CCOc1ccc(Nc2cc3c(cn2)cc(C(C)C)c(=O)n3-c2ccccc2)nc1 [Compound 18, 7-[5-(2-Diethylamino-ethoxy)-pyridin-2-ylamino]-3-isopropyl-1-phenyl-1H-[1,6]naphthyridin-2-one]	< 1000	–	< 1000
–	> 5000	–	> 5000	–	–	> 5000	–	1000 to 10000	–	CCn1c(=O)c(-c2ccccc2)cc2cnc(Nc3ccc(F)cn3)cc21 [Compound 28, 1-Ethyl-7-(5-fluoro-pyridin-2-ylamino)-3-phenyl-1H-[1,6]naphthyridin-2-one]	1000 to 10000	No Arrest	1000 to 10000
100 to 1000	–	–	< 100	> 10000	100 to 1000	–	–	–	–	CCn1c(=O)c(-c2ccccc2F)cc2cnc(Nc3ccc(C)cn3)cc21 [Compound 35, 1-ethyl-3-(2-fluorophenyl)-7-(5-methylpyridin-2-ylamino)-1,6-naphthyridin-2(1H)-one]	< 1000	G1 Arrest	< 1000
–	–	–	–	–	–	–	–	–	–	CCN(CC)CCOc1ccc(Nc2cc3c(cn2)cc(C(C)C)c(=O)n3C2CCC2)nc1 [Compound 47, 1-Cyclobutyl-7-[5-(2-diethylamino-ethoxy)-pyridin-2-ylamino]-3-isopropyl-1H-[1,6]naphthyridin-2-one]	–	G1 Arrest	–
100 to 1000	100 to 1000	100 to 1000	100 to 1000	–	–	< 100	–	> 10000	–	CCn1c(=O)c(-c2ccccc2)cc2cnc(Nc3ccc(O)cn3)cc21 [Compound 52, 1-Ethyl-7-(5-hydroxy-pyridin-2-ylamino)-3-phenyl-H-[1,6]naphthyridin-2-one]	1000 to 10000	G1 Arrest	1000 to 10000
–	> 5000	–	> 5000	–	–	> 5000	–	< 1000	–	CCn1c(=O)c(I)cc2cnc(Nc3ccc(C)cn3)cc21 [Compound 89]	< 1000	G1 Arrest	< 1000
–	> 5000	–	> 5000	–	–	< 100	–	> 10000	–	CCn1c(=O)c(C(C)(C)O)cc2cnc(Nc3ccc(C)cn3)cc21 [Compound 69]	> 10000	No Arrest	> 10000
100 to 1000	–	–	> 5000	–	–	> 5000	–	1000 to 10000	–	CCc1cc2cnc(Nc3ccc(C)cn3)cc2n(CC)c1=O [Compound 19, 1,3-Diethyl-7-(5-methyl-pyridin-2-ylamino)-1H-[1,6]naphthyridin-2-one]	1000 to 10000	No Arrest	1000 to 10000
–	–	–	< 100	–	–	2580	–	1000 to 10000	–	CN1CCC(n2c(=O)c(-c3c(F)cccc3F)cc3cnc(Nc4ccc(F)cn4)cc32)CC1 [Compound 79, 3-(2,6-difluorophenyl)-7-((5-fluoropyridin-2-yl)amino)-1-(1-methylpiperidin-4-yl)-1,6-naphthyridin-2(1H)-one]	< 1000	G1 Arrest	< 1000
< 100	–	–	–	1000 to 10000	< 100	–	–	–	< 100	CCN(CC)CCOc1ccc(Nc2cc3c(cn2)cc(-c2c(Cl)cccc2Cl)c(=O)n3C2CCOC2)nc1 (single isomer, unassigned) [Compound 145, (S or R)-3-(2,6-dichlorophenyl)-7-((5-(2-(diethylamino)ethoxy)pyridin-2-yl)amino)-1-(tetrahydrofuran-3-yl)-1,6-naphthyridin-2(1H)-one]	< 1000	–	–
–	–	–	< 100	–	1000 to 5000	–	–	1000 to 10000	–	CCn1c(=O)c(-c2ccccc2)cc2cnc(Nc3ccc(NCCN(C)C)cn3)cc21 [Compound 67, 7-[5-(2-Dimethylamino-ethylamino)-pyridin-2-ylamino]-1-ethyl-3-phenyl-1H-[1,6]naphthyridin-2-one]	< 1000	G1 Arrest	< 1000
